According to patent US8099262B2, “Estimation of clinical cut-offs” (priority 2004, dated 2012):

Columns and labels:
HIV [1] = test: Logistic regression model of probability of success/failure as a function of baseline fold change resistance (clinical cut-offs); type: in vivo
From the text: In such a method, Prob of success is preferably calculated by performing a logistic regression analysis using data from a clinical response dataset, wherein Prob of success is modelled according to the following equation: […]
The clinical outcome results (drop in viral load and response rate) were modelled as a function of baseline fold change (FC) as determined by virtual phenotype (see WO01/79540 and WO02/33402; also http://www.vircolab.com). The models applied were linear regression, logistic regression, and a classification tree. These models also took into account effects of the concomitant HIV drugs (PSS), baseline viral load (Baseline Log(V1)i) and, optionally, treatment history in order to avoid bias introduced by imbalances of important characteristics. From the models, a prediction of clinical outcome could be made at different levels of the baseline fold change resistance.
In the logistic regression, the proposed equation was the following: […]
However, by binning the viral load into successes and failures, part of the information of the continuous variable viral load is lost. Estimates are also corrected for covariates as for linear regression.
The maximum effect was defined as the treatment effect at fold change 1, and the minimum effect was defined as the treatment effect at a very high fold change (i.e. when the curve reached a plateau). The effect range was then the difference between the maximum effect and the minimum effect.
The lower and higher cutoffs are defined as the fold change associated with an expected 20% and 80% decrease respectively of the reference activity of the drug within the regimen.

HIV [2] = type: in vivo; design: key to Modelled Lower Cutoff & Confidence Interval / Modelled Upper Cutoff & Confidence Interval: fold change (FC) matching VL drop at 20% and 80% loss of activity; details: preferred embodiment of linear regression
From the text: In a preferred embodiment of the linear regression model, more factors are included in order to obtain a more refined prediction of viral load response. These factors include for example a sensitivity score per drug class in addition to the overall sensitivity score of the background treatment (cPSS), previous exposure to the drug (naïve (Yes/No), naïve to PIs, naïve to NRTI's, etc. . . . ). Furthermore, in the preferred embodiment, the fold change is transformed before inserting the figures into the model. The transformation to the fold change comprises a power-transformation ranging from FC^−3 to FC^1. In addition, a quadratic term in cPSS is preferably added.
The NRTI[naïve] value represents whether the patient is naïve to nucleoside RT inhibitors. If yes, value=1, if no, value=0. The PSS[NRTI} represents the phenotypic sensitivity score for NRTIs, i.e the number of active NRTIs in the background regimen for the patient.
Stage 3: Determine Fold change equivalent to VL drop at 20% and 80% loss of activity by inserting values for VL drop into the above equation and calculating FC. […]

[3] = Definition 2, Subgroup 1: PSS = 2, baseline Log (VL) = 4
[4] = Definition 2, Subgroup 2: PSS = 0, baseline Log (VL) = 4
[5] = Definition 2, Subgroup 3: PSS = 2, baseline Log (VL) = 5
[6] = Definition 3, Subgroup 1: PSS = 2, baseline Log (VL) = 4
[7] = Definition 3, Subgroup 2: PSS = 0, baseline Log (VL) = 4
[8] = Definition 3, Subgroup 3: PSS = 2, baseline Log (VL) = 5

CC(C)OC(=O)OCOP(=O)(CO[C@H](C)Cn1cnc2c(N)ncnc21)OCOC(=O)OC(C)C.O=C(O)/C=C/C(=O)O [TDF]
Logistic Regression Higher CO (HIV [1]; [3]): 3.81
Logistic Regression Lower CO (HIV [1]; [3]): 1.2
Logistic Regression Higher CO (HIV [1]; [4]): 3.36
Logistic Regression Lower CO (HIV [1]; [4]): 1.16
Logistic Regression Higher CO (HIV [1]; [5]): 3.4
Logistic Regression Lower CO (HIV [1]; [5]): 1.17
Logistic Regression Lower CO (HIV [1]; Definition 3, Overall): 1.2
Logistic Regression Higher CO (HIV [1]; [6]): 3.81
Logistic Regression Lower CO (HIV [1]; [6]): 1.2
Logistic Regression Higher CO (HIV [1]; [7]): 3.36
Logistic Regression Lower CO (HIV [1]; [7]): 1.2
Logistic Regression Higher CO (HIV [1]; [8]): 3.4
Logistic Regression Lower CO (HIV [1]; [8]): 1.2
Modelled Lower Cutoff & Confidence Interval (HIV [2]): 1.0
Modelled Upper Cutoff & Confidence Interval (HIV [2]): 2.0
